Source: ChEMBL document CHEMBL1201862, “PubChem BioAssay data set” (2004)
Active and inactive are the calls of the source.

What was measured:
Streptococcus = experiment: Group A Streptococcus viability loss, dose response, counter-screen for streptokinase expression inhibitor project, luminescence, BacTiterGlo (AID 1915); type: functional, organism-based;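 further: potency for reduction of bacterial viability or growth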
Streptokinase A = biological target: T1, Streptokinase A (Streptococcus pyogenes serotype M1, UniProt P10520); experiment: S. pyogenes streptokinase expression inhibitors, potency, dose response, plasminogen activation absorbance, OD405 (AID 1914); type: functional, Streptococcus pyogenes M1 GAS;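 further: secreted streptokinase activity via plasminogen activation per viability signal from cell pellet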
T1 sequence (P10520 whole entry): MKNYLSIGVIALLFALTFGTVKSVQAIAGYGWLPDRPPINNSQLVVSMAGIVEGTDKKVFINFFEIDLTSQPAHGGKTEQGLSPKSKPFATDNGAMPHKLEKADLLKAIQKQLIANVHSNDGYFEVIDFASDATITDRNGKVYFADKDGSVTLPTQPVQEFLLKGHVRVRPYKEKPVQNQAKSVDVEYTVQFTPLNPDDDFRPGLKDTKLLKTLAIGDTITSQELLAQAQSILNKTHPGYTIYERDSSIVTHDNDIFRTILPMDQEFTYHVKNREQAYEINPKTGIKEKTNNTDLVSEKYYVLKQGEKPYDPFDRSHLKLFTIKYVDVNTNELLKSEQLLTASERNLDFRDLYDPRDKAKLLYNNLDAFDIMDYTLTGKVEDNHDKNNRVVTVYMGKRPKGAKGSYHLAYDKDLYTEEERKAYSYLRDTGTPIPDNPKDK

[1] = biological target: Heat shock protein HSP 90-alpha (Homo sapiens, UniProt P07900); type: functional, organism-based
[2] = decrease of PhoP-driven GFP reporter signal, S. Typhimurium, dose response, PhoP regulon inhibitor project, purified and synthesized compounds, set 2 (AID 2831); type: functional
[3] = tested on: Streptococcus sp. 'group A'; experiment: growth inhibition of control SK(-) GAS strain, dose response, counter-screen for streptokinase expression inhibitor project, luminescence, kanamycin, BacTiterGlo, confirmation (AID 1900); type: functional, organism-based
[4] = biological target: G-protein coupled receptor 55 (Homo sapiens, UniProt Q9Y2T6); experiment: SAR analysis of selective Agonists of GPR55 using an Image-Based Assay - Set 2. [Related pubchem assays (depositor defined):AID1961, AID1965]; type: functional
Cannabinoid receptor 1 [5] = biological target: T2, Cannabinoid receptor 1 (Homo sapiens, UniProt P21554); experiment: SAR analysis of agonists of the Cannabinoid Receptor 1 using an Image-Based Assay - Set 3. [Related pubchem assays (depositor defined):AID1961, AID1965]; type: functional
Cannabinoid receptor 2 [6] = biological target: T3, Cannabinoid receptor 2 (Homo sapiens, UniProt P34972); experiment: SAR analysis of agonists of the Cannabinoid Receptor 2 using an Image-Based Assay - Set 2. [Related pubchem assays (depositor defined):AID1961, AID1965]; type: functional
Cannabinoid receptor 1 [7] = biological target: T2, Cannabinoid receptor 1; experiment: SAR analysis of antagonists of the Cannabinoid Receptor 1 using an Image-Based Assay - Set 3. [Related pubchem assays (depositor defined):AID1961, AID1965]; type: functional
Cannabinoid receptor 2 [8] = biological target: T3, Cannabinoid receptor 2; experiment: SAR analysis of antagonists of the Cannabinoid Receptor 2 using an Image-Based Assay - Set 2. [Related pubchem assays (depositor defined):AID1961, AID1965]; type: functional
[9] = biological target: T4, G-protein coupled receptor 35 (Homo sapiens, UniProt Q9HC97); experiment: SAR analysis of Agonists of the GPR35 Receptor using an Image-Based Assay - Set 3. [Related pubchem assays (depositor defined):AID1961, AID1965]; type: functional
[10] = biological target: T4, G-protein coupled receptor 35; experiment: SAR analysis of Antagonists of the GPR35 Receptor using an Image-Based Assay - Set 4. [Related pubchem assays (depositor defined):[…]]; type: functional
[11] = biological target: T5, E3 ubiquitin-protein ligase XIAP (Homo sapiens, UniProt P98170); experiment: Chemical Antagonists of IAP-family anti-apoptotic proteins confirmation. [Related pubchem assays (depositor defined):AID1018, AID1513, AID1514, AID1638, AID1749, AID1750, AID488957, AID488963]
[12] = biological target: T5, E3 ubiquitin-protein ligase XIAP; experiment: Counter Screen using XIAP-Bir3 of the Chemical Antagonists of IAP-family anti-apoptotic proteins confirmation assay. [Related pubchem assays (depositor defined):AID1018, AID1449, AID1513, AID1638, AID1749, AID1750, AID488957, AID488963]
[13] = biological target: Peroxisome proliferator-activated receptor gamma (Homo sapiens, UniProt P37231); experiment: PPARg partial agonists, dose response, cell-based, luminescence, assay provider (AID 504447); type: functional
[14] = Luminescence Cell-Based Dose Response HTS to Identify Activators of Luciferase Translation or Activity in H4-C Neuroglioblastoma Cells. [Related pubchem assays: 1829 (Project Summary), 1814 (Primary HTS)]; type: functional
[15] = Luminescence Cell-Based Dose HTS Response to Identify Inhibitors of 5'UTR Stem-Loop Driven Prion Protein mRNA Translation in H4-C Neuroglioblastoma Cells. [Related pubchem assays (depositor defined):AID1814, AID1827]; type: functional
[16] = Luminescence Cell-Based Dose Confirmation HTS to Identify Inhibitors of 5'UTR Stem-Loop Driven Alpha-Synuclein mRNA Translation in H4 Neuroglioblastoma Cells. [Related pubchem assays: 1827 (Project Summary), 1813 (Primary HTS)]; type: functional
[17] = Luminescence Cell-Based Dose Response HTS to Identify Inhibitors of Luciferase Translation or Activity in H4-C Neuroglioblastoma Cells. [Related pubchem assays: 1813 (Primary HTS), 1827 (Project Summary)]; type: functional
[18] = Luminescence Cell-Based Dose Response HTS to Identify Activators of 5'UTR Stem-Loop Driven Prion Protein mRNA Translation in H4-C Neuroglioblastoma Cells. [Related pubchem assays: 1829 (Project Summary), 1814 (Primary HTS)]; type: functional
[19] = cytotoxicity in HEK-293T cells, dose response, cytotoxicity control for TCR NF-kB inhibitor project, luminescence, T-cell screen hits (AID 489026); type: functional, cell-based;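 further: cells exposed to compound about 14 hours before the viability readout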
[20] = inhibitors of firefly luciferase expression or activity, dose response, H4 neuroglioma cells, luminescence (AID 1990); type: functional, cell-based
[21] = inhibitors of SNCA 5'UTR-driven reporter translation, confirmation, H4 neuroglioma cells, luminescence (AID 1988); type: functional, cell-based
[22] = Luminescence Cell-Based Dose Retest to Confirm Activators of 5'UTR Stem-Loop Driven Alpha-Synuclein mRNA Translation in H4 Neuroglioblastoma Cells. [Related pubchem assays (depositor defined):AID1813, AID1829]; type: functional
[23] = Luminescence Cell-Based Dose Response HTS to Identify Inhibitors of 5'UTR Stem-Loop Driven Prion Protein mRNA Translation in H4 Neuroglioblastoma Cells. [Related pubchem assays: 1827 (Project Summary), 1813 (Primary HTS)]; type: functional

T2 sequence (P21554 whole entry): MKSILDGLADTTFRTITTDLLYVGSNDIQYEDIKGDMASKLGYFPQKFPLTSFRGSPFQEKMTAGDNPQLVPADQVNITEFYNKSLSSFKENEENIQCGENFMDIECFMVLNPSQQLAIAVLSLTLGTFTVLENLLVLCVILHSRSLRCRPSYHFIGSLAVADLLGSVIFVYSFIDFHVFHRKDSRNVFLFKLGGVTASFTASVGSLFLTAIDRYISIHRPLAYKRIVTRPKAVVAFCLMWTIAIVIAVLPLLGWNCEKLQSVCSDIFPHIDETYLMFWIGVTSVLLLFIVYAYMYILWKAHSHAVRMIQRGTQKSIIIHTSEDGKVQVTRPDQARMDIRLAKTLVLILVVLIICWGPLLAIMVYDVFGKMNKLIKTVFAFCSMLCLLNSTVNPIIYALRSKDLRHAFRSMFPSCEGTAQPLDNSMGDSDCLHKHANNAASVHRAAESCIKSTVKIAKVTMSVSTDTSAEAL
T5 sequence (P98170 whole entry): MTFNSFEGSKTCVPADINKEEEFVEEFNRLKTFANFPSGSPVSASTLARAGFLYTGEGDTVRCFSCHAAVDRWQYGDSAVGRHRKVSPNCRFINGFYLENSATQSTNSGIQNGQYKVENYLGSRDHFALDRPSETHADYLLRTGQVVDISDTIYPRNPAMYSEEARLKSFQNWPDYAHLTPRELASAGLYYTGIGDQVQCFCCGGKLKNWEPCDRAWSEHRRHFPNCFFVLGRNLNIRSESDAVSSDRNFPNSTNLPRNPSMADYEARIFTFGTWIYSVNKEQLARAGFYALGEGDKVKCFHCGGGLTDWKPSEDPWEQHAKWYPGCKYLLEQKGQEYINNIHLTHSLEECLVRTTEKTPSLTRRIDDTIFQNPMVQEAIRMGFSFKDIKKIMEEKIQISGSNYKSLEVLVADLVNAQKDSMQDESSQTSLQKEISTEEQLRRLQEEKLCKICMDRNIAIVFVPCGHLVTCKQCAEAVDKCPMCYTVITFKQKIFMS
T3 sequence (P34972 whole entry): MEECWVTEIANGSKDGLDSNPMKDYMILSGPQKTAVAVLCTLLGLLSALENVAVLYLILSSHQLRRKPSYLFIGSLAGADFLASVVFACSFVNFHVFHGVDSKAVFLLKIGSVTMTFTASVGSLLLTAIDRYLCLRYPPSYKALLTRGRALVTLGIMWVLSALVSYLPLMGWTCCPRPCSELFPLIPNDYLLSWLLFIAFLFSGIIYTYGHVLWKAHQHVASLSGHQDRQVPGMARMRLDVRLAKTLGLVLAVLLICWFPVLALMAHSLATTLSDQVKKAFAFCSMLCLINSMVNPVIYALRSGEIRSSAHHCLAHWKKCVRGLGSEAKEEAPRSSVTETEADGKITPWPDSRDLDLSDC
T4 sequence (Q9HC97 whole entry): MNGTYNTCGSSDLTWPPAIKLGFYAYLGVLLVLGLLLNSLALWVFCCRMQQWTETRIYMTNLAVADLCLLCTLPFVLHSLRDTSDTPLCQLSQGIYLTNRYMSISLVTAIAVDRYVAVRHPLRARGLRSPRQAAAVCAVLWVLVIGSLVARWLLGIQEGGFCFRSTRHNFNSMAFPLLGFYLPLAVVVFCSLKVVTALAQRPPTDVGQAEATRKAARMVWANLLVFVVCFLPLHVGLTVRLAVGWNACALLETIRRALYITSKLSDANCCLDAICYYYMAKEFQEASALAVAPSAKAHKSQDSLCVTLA
Peroxisome proliferator-activated receptor gamma, sequence (P37231 whole entry): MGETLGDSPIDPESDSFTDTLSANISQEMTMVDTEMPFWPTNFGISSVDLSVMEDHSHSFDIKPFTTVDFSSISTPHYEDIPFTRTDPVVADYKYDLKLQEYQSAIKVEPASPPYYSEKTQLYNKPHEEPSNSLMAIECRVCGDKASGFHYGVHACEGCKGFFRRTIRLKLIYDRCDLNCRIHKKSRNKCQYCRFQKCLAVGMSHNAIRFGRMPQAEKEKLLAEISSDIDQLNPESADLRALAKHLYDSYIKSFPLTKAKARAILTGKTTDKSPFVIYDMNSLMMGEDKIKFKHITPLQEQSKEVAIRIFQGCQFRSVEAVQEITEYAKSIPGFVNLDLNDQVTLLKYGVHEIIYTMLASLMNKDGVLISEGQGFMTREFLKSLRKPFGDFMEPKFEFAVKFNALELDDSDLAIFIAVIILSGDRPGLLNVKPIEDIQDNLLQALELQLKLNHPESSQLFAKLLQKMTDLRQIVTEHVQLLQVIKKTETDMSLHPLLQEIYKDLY
G-protein coupled receptor 55, sequence (Q9Y2T6 whole entry): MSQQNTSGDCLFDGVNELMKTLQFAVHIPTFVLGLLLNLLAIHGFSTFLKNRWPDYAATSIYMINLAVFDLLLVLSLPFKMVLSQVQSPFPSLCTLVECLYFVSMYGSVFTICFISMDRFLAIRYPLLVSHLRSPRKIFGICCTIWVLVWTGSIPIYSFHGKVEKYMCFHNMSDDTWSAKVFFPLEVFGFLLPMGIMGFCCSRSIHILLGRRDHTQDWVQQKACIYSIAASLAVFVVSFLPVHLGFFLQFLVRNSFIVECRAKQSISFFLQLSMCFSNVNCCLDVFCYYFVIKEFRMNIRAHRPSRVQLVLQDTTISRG

## CSc1nc2cc(Cl)c(Oc3cccc(Cl)c3Cl)cc2[nH]1 [TRICLABENDAZOLE]
Streptococcus
  EC50: 6.22 µM (active)
Streptokinase A
  EC50: 4.69 µM (active)
[1]
  AC50: 4.25 µM (active)
[2]
  IC50: > 125 µM (active)
[3]
  EC50: 2.26 µM (active)

## COc1ccc(S(=O)(=O)N2CCOCC2)cc1NC(=O)c1ccc(OCC(C)C)c(OC)c1
[4]
  EC50: 4.56 µM (active)
Cannabinoid receptor 1 [5]
  EC50: > 32 µM (inactive)
Cannabinoid receptor 2 [6]
  EC50: > 32 µM (inactive)
Cannabinoid receptor 1 [7]
  IC50: > 32 µM (inactive)
Cannabinoid receptor 2 [8]
  IC50: > 32 µM (inactive)
[9]
  EC50: > 32 µM (inactive)
[10]
  IC50: > 32 µM (inactive)

## O=C(O)C(c1ccc(F)cc1)N1Cc2ccccc2C1=O (stereo not given)
[11]
  IC50: > 200 µM (inactive)
[12]
  IC50: > 200 µM (inactive)

## COc1cccc(Cn2nc3c4cc(F)ccc4n(Cc4ccc(F)cc4)cc-3c2=O)c1
[13]
  EC50: 0.502 µM (active)

## CCOC(=O)c1[nH]c(C)c(C(=O)c2cc(F)ccc2F)c1C
[14]
  EC50: 0.557 µM (inconclusive)
[15]
  EC50: 0.241 µM (active)
[16]
  EC50: 1.66 µM (active)
[17]
  EC50: 0.557 µM (active)
[18]
  EC50: 0.241 µM (inconclusive)
[19]
  IC50: > 80 µM (inactive)
[20]
  EC50: 10.6 µM (active)
[21]
  EC50: 0.2 µM (active)
[22]
  EC50: 1.66 µM (inconclusive)
[23]
  EC50: 11.5 µM (active)
